9 molecules from patent US9604988B2, “Agent for treating or inhibiting recurrence of acute myeloid leukemia” (RIKEN, priority 2012, dated 2017) can be followed below.

In one series the target is HCK (Homo sapiens, UniProt P08631). In words: HCK kinase inhibition. Format: biochemical.
The target in a further series is T1, FLT3-ITD (Homo sapiens, UniProt P36888, ITD).
T1 sequence (P36888 27-993): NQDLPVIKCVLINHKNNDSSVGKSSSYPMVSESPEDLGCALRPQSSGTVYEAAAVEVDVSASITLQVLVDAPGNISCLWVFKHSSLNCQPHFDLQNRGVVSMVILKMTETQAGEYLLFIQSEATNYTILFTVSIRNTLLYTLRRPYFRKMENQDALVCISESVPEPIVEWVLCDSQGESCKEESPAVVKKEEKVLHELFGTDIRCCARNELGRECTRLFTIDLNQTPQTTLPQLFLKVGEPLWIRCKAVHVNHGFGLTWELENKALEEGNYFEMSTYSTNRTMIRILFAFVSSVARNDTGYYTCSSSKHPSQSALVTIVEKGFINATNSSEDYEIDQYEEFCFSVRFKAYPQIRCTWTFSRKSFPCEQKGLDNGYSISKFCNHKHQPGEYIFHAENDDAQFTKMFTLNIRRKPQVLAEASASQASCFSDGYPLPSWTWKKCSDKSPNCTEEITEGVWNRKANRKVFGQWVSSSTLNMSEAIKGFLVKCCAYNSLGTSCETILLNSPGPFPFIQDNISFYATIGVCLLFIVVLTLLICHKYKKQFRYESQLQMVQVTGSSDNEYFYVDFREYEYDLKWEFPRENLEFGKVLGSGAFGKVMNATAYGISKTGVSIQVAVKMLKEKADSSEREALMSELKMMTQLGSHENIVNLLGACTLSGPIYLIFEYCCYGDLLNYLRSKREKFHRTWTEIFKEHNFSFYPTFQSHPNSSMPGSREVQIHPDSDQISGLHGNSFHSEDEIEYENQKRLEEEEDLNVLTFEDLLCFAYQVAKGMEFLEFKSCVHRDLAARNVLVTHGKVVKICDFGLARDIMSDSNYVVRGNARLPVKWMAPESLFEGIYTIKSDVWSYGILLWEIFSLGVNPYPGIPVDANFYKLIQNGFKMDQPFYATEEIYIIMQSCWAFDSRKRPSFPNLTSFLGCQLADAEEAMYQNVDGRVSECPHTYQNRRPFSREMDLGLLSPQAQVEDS
In words: FLT3-ITD kinase inhibition. The class given is biochemical.

The target of another series is hERG (Homo sapiens, UniProt Q12809). In words: hERG inhibition (automated patch-clamp). The class given is cell-based. In general terms: hERG is a cardiac potassium channel; its block is linked to QT prolongation.
Sequence of hERG (Q12809 whole entry): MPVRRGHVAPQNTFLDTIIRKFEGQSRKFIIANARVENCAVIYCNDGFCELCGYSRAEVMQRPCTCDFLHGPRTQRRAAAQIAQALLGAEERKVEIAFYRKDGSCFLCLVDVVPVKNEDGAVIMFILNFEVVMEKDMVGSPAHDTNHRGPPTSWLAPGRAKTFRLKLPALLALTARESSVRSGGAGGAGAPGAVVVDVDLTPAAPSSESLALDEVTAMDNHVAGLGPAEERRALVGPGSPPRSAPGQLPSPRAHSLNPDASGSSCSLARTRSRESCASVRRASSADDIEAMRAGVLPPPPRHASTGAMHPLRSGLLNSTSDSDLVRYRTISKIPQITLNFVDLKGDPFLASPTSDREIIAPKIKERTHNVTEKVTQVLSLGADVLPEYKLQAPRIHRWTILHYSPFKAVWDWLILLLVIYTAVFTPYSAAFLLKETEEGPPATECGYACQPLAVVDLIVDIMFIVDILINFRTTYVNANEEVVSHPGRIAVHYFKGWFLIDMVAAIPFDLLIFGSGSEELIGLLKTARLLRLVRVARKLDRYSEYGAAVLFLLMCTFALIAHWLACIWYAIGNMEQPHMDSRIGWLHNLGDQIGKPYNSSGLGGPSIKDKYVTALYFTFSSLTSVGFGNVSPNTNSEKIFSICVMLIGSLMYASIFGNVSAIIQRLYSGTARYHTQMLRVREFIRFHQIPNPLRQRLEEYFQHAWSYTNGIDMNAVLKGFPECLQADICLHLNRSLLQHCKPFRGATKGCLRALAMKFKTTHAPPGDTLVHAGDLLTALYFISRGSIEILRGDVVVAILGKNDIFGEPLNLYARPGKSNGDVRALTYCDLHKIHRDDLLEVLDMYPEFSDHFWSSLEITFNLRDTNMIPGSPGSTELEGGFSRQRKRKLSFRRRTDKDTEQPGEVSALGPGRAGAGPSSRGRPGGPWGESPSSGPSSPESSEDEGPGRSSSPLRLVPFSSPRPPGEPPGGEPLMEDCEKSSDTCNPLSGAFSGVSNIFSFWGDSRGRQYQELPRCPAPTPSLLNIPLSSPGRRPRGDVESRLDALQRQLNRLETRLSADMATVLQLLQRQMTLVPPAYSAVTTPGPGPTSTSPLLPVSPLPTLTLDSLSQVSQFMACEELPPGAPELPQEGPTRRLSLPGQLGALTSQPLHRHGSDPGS

Sequence of HCK (P08631 whole entry): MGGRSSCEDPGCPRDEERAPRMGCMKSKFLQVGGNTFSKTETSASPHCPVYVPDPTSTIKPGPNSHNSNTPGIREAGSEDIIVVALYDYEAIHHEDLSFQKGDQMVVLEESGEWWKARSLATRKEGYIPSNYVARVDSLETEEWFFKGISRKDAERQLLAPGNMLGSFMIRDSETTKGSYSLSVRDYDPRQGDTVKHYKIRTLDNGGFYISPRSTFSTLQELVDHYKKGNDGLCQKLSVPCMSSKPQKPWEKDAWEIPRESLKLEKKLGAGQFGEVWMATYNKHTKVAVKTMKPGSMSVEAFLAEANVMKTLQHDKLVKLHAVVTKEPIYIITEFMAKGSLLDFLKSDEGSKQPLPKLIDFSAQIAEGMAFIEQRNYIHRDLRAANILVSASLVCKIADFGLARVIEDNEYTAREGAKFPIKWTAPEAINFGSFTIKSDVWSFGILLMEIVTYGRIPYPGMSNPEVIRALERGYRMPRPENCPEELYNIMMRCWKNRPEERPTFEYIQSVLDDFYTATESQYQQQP

For `Cn1nccc1CN[C@H]1CC[C@@H](n2cc(-c3ccc(Oc4ccccc4)cc3)c3c(N)ncnc32)CC1` [Example 49, 7-((cis)-4-(((1-Methyl-1H-pyrazol-5-yl)methyl)amino)cyclohexyl)-5-(4-phenoxyphenyl)-7H-pyrrolo[2,3-d]pyrimidin-4-amine], the half-inhibitory concentration (IC50) (usually the concentration that gives 50% inhibition) came out at 0.53 nM on HCK and 23 nM against FLT3-ITD. Further, on hERG, 10 µM produced 99% inhibition.
The matching figures for `Nc1ncnc2c1c(-c1ccc(Oc3ccccc3)cc1)cn2[C@H]1CC[C@@H](NCc2ccccn2)CC1` [Example 47, 5-(4-Phenoxyphenyl)-7-((cis)-4-((pyridin-2-ylmethyl)amino)cyclohexyl)-7H-pyrrolo[2,3-d]pyrimidin-4-amine]: 6.5 nM, 12 nM and 99%.
The matching figures for `CN1C2CCC1CC(N[C@H]1CC[C@@H](n3cc(-c4ccc(Oc5ccccc5)cc4)c4c(N)ncnc43)CC1)C2` (some centres unmarked) [Example 55, 7-((1s,4s)-4-((8-Methyl-8-azabicyclo[3.2.1]octan-3-yl)amino)cyclohexyl)-5-(4-phenoxyphenyl)-7H-pyrrolo[2,3-d]pyrimidin-4-amine]: 4.2 nM, 35.2 nM and 92%.
The matching figures for `Cn1ccc(CN[C@H]2CC[C@@H](n3cc(-c4ccc(Oc5ccccc5)cc4)c4c(N)ncnc43)CC2)n1` [Example 51, 7-((cis)-4-(((1-Methyl-1H-pyrazol-3-yl)methyl)amino)cyclohexyl)-5-(4-phenoxyphenyl)-7H-pyrrolo[2,3-d]pyrimidin-4-amine]: 8 nM, 34 nM and 100%.
In the case of `CN1C2CCC1CN([C@H]1CC[C@@H](n3nc(-c4ccc(Oc5ccccc5)cc4)c4c(N)ncnc43)CC1)C2` [Example 52, 1-((1s,4s)-4-(8-Methyl-3,8-diazabicyclo[3.2.1]octan-3-yl)cyclohexyl)-3-(4-phenoxyphenyl)-1H-pyrazolo[3,4-d]pyrimidin-4-amine], the results for the IC50 against HCK and against FLT3-ITD were 14.5 nM and 27 nM, respectively. Also, at hERG, testing at 10 µM gave an inhibition of 99%.
The matching figures for `COCCN1CCN([C@H]2CC[C@H](n3cc(-c4ccc(Oc5ccccc5)cc4)c4c(N)ncnc43)CC2)CC1` [Example 40, 7-((trans)-4-(4-(2-Methoxyethyl)pyrazin-1-yl)cyclohexyl)-5-(4-phenoxyphenyl)-7H-pyrrolo[2,3-d]pyrimidin-4-amine]: 4 nM, 16 nM and 96%.
The matching figures for `Nc1ncnc2c1c(-c1ccc(Oc3ccccc3)cc1)nn2[C@H]1CC[C@H](NC(=O)c2cccnc2)CC1` [Example 22, N-((trans)-4-(4-amino-3-(4-phenoxyphenyl)-1H-pyrazolo[3,4-d]pyrimidin-1-yl)cyclohexyl)nicotinamide]: 20 nM, 190 nM and 50%.
The like results for `CN1C2CCC1CC(N1CCC(n3nc(-c4ccc(NC(=O)c5cc6ccccc6n5C)cc4)c4c(N)ncnc43)CC1)C2` (centres unmarked) [Example 25, N-(4-(4-amino-1-(1-(8-methyl-8-azabicyclo[3.2.1]octan-3-yl)piperidin-4-yl)-1H-pyrazolo[3,4-d]pyrimidin-3-yl)phenyl)-1-methyl-1H-indole-2-carboxamide] were, in that order, 2.05 nM, 2780 nM and 42%.
On to `Nc1ncnc2c1c(-c1ccc(Oc3ccccc3)cc1)cn2[C@H]1CC[C@H](N2CCN(CCO)CC2)CC1` [Example 41, 2-(4-((trans)-4-(4-Amino-5-(4-phenoxyphenyl)-7H-pyrrolo[2,3-d]pyrimidin-7-yl)cyclohexyl)piperazin-1-yl)ethan-1-ol], for which, on FLT3-ITD, the IC50 turned out to be 21 nM. Further, on hERG, the inhibition (in general, the percentage by which the read-out fell short of the control) at 10 µM came out at 93%.
